One test concerns HepG2 cells. Put plainly: Fatty acid (palmitate) oxidation assay with human liver hepatoma cells HepG2. The test is classed as cell-based. The note with it: for Stimulation of palmitate / fatty acid oxidation (in words): HepG2. As to the method:
For routine passaging, HepG2 cells (American Type Culture Collection, ATCC) were grown in T75 flasks (Falcon, #353136) in 15 ml of Dulbecco's modified Eagle medium (DMEM, Sigma, #D5796), containing 10% heat inactivated fetal bovine serum (FBS, Summit Biotechnology, #S-100-05) and 1% Penicillin/Streptomycin (Sigma, #P4333). […] The cells were passaged once per week by trypsinization and an additional change of medium was done after 3 to 4 days after passaging.

Test [1] has as its system differentiated L6 cells. Put plainly: Fatty acid (palmitate) oxidation assay with differentiated rat L6 muscle cells.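 Also: differentiated rat L6 myotubes fed [14C]-palmitate, with oxidation read as 14CO2 trapped on filters and counted by liquid scintillation after 3 to 8 h at 37 °C.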
Description: (§1) Labeling medium to assay oxidation of fatty acids was composed of glucose-deficient DMEM containing 3.7 g/l NaHCO3, 25 mM HEPES-NaOH, 0.5% fatty acid-free bovine serum albumin (BSA), 0.1% ethanol, 0.5% DMSO (or test compounds dissolved in DMSO), 5 mM D-glucose, and 16 μM unlabeled palmitate plus 0.25 μM [U-^14C]palmitate (approx. 800 mCi/mmol). After the addition of labeling medium, the cell culture plates were sealed air tight with self adhesive Super Sealing Film (Life Systems Design, #02-2796-3001). Before sealing, twelve 1 cm^2 squares of filter paper (Schleicher & Schuell, #GB004) pretreated with 50 μl of highly basic tissue solubilizer solution NCSII (Amersham Pharmacia, #NNCS-502) were attached to the lower side of the sealing film. Upon sealing of the tissue culture plates, the filters were positioned in the center above each well, and served to capture the evolving ^14CO2 that was produced by the cells in each individual well. After an incubation between 3 to 8 hours at 37° C., the filters were removed from the sealing film and the captured ^14CO2 was quantitated by liquid scintillation counting with 2 ml of scintillation cocktail BCS-NA (Amersham Pharmacia, #NBCS204) in a Tri-Carb liquid scintillation counter (Canberra Packard).
(§2) Cultivation of the differentiating rat muscle cell line L6 for fatty acid oxidation assays was performed as follows. For routine passaging, L6 cells (ATCC) were grown in T75 flasks in 15 ml of MEM Alpha medium (Gibco BRL Life Technologies, #22571-038), containing 10% heat inactivated FBS and 1% antibiotic/antimycotic solution (Gibco BRL Life Technologies, #15240-062). Incubation was done at 37° C. in a humid atmosphere containing 5% CO2. The cells were passaged twice per week by trypsinization.
(§3) For fatty acid oxidation assays, each well of a 12-well tissue culture plate was seeded with 2 to 5×10^4 cells in 1 ml of MEM Alpha, 10% FBS, 1% antibiotic/antimycotic solution. After 3 days, medium was exchanged by 1 ml of the same, fresh medium. After 5 days, medium was exchanged again, this time by 1 ml of medium containing 2% FBS, 1% antibiotic/antimycotic solution. After 7 days, the cells were fully differentiated and formed large multinucleated myotubes. At this stage, the medium was replaced by 1 ml of glucose-deficient DMEM supplemented with 3.7 g/l NaHCO3 and 25 mM HEPES-NaOH followed by a starvation period of 2 to 6 hours at 37° C. […] The compounds were tested at three different concentrations (2, 0.2 and 0.02 μM) on differentiated L6 cells.
The target in a further test is T1, human ACCβ enzyme (Homo sapiens, UniProt O00763).
T1 construct: The cloning of the full length human muscle-type ACCβ cDNA and expression in HEK293 cells; made in house; host or cells: HEK293 cells (ATCC CRL-1573), plasmid pRF33D
T1 sequence (O00763 whole entry): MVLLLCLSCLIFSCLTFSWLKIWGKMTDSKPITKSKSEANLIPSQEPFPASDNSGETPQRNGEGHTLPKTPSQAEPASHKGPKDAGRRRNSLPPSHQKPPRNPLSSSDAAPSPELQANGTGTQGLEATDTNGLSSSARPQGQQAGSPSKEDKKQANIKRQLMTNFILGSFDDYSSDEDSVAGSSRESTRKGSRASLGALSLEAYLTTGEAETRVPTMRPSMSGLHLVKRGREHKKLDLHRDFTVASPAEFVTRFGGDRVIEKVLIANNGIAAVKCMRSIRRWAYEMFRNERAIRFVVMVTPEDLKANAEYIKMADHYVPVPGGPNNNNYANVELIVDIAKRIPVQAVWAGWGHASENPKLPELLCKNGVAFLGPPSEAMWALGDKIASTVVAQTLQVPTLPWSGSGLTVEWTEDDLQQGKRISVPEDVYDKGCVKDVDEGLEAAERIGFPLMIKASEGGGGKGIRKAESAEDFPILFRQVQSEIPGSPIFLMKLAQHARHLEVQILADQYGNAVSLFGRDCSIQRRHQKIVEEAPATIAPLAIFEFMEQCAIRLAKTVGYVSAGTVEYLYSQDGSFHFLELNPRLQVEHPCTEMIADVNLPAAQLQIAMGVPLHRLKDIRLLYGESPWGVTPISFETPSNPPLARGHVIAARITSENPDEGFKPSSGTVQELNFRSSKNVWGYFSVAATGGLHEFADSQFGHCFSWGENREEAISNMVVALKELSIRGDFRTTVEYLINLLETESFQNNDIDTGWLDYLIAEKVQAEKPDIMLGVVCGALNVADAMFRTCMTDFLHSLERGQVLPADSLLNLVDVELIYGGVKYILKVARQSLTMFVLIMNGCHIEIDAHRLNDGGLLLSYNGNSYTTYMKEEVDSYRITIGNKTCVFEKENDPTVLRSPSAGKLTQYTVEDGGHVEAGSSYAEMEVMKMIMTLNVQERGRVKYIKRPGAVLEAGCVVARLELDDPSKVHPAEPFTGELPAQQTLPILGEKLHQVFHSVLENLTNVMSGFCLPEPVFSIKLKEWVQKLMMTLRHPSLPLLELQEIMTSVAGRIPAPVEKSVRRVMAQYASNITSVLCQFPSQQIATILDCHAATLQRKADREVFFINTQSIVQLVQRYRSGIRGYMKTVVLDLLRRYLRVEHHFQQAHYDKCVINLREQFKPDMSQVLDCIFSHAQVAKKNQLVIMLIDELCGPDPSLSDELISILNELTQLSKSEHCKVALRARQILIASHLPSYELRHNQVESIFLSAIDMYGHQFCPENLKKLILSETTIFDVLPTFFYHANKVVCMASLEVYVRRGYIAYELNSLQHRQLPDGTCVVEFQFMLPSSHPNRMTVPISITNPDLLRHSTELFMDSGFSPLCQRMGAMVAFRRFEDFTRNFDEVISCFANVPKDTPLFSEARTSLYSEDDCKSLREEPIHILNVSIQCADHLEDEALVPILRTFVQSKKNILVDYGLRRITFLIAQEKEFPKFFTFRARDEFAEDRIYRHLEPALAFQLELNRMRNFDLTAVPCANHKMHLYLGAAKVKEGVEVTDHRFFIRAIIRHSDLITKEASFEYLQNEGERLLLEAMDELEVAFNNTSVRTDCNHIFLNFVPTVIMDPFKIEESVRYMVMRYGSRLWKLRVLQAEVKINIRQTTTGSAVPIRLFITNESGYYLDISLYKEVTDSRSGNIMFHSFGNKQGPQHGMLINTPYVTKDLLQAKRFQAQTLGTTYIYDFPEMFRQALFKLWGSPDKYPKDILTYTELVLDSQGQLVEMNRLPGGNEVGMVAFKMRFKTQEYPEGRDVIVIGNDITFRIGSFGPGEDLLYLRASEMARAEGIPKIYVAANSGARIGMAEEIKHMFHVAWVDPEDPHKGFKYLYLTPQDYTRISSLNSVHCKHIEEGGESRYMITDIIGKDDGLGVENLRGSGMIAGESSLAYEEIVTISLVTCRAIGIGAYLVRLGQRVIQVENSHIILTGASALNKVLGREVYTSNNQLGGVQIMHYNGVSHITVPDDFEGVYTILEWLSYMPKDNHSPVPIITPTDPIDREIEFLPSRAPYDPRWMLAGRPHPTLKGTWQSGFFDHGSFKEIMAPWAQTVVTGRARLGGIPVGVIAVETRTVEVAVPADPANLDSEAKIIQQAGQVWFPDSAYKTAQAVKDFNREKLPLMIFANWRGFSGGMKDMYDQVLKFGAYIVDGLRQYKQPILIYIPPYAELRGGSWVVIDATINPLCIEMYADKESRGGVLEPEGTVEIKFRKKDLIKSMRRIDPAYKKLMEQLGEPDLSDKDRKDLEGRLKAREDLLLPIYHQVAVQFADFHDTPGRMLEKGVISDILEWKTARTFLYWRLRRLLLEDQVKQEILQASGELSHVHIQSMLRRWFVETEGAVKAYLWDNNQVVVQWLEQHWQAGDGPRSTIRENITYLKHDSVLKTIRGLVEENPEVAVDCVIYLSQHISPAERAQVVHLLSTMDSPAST
Put plainly: Human ACCβ enzyme activity / inhibition assay (radiometric). The format is biochemical. The note with it: for IC50: purified recombinant human ACCβ, saturating substrate concentrations, read-out: IC50 against purified ACCβ enzyme; for Effect on K0.5 of K-citrate / Effect on Vmax of the ACC enzyme reaction: titration of compound at 0.5, 1 and 2 times IC50. The protocol:
The cloning of the full length human muscle-type ACCβ cDNA and expression in HEK293 cells (ATCC, #CRL-1573) was performed as follows. The ACCβ cDNA was amplified by the polymerase chain reaction (PCR) and was cloned using standard recombinant DNA techniques. The PCR reaction was performed with the Expand Long Template PCR System (Roche Molecular Biochemicals, #1 681 8340) and 0.5 ng of cDNA from human skeletal muscle as template. The primers used for PCR amplification were designed on the basis of the published sequence of the human ACCβ cDNA isolated from a human liver cDNA library (Abul-Elheiga et al. J. Biol Chem. 272, 10669-10677, 1997). The sequence of the forward primer ACCB1 was 5′-[…]-3′; it includes a NheI restriction cleavage site for subcloning and a Kozak translation initiation consensus sequence preceding the ATG start codon. The sequence of the reverse primer ACCB8 was 5′-[…]-3′; it includes a stop codon and a XhoI restriction cleavage site for subcloning. The amplified DNA fragment of approximately 7.4 kb was cloned into a mammalian expression vector. The resulting plasmid isolates, pRF33A, B, C, D, and E were individually transfected in human embryonic kidney 293 cells (HEK293) using a standard lipid transfection method. Cell extracts of transfected cells were prepared in a lysis buffer containing 0.4 mg/ml digitonin and enzyme activity was determined using a radiometric ACC activity assay as described below. Plasmid pRF33D gave the highest activity and was chosen for large scale transfections of HEK293 cells and enzyme purification.
Since ACC enzyme activities in crude cell lysates were very low, enrichment of ACCβ enzyme expressed in HEK293 cells was achieved by a single anion exchange chromatography step. Cell lysates were run over a 5 ml Econo Pac High Q column (Bio-Rad, #732-0027). Bound proteins were eluted by a gradient of NaCl from 0 to 1 M in 50 mM Tris-HCl, pH 7.5, 1 mM DTT, 5% glycerol. Fractions containing high ACCβ enzyme activity were pooled and stored at −20° C.
Standard ACCβ enzyme assays, in a total volume of 100 μl, contained 50 mM HEPES-KOH, pH 7.5, 10 mM K-citrate, 10 mM MgSO4, 1 mM ATP, 0.1 mM DTT, 2% DMSO, 0.1 mg/ml fatty acid-free BSA, 0.2 mM acetyl-CoA, 2 mM KHCO3, 0.2 mM [^14C]NaHCO3 (50-60 mCi/mmol) and cell lysate or purified ACCβ enzyme. Reactions were incubated at 37° C. for 45 min. and stopped by the addition of 50 μl of 2 N HCl. Terminated reactions were incubated at 50° C. over night to evaporate non-incorporated [^14C]NaHCO3. [^14C]-labeled malonyl-CoA reaction product was quantitated by liquid scintillation counting after the addition of 20 μl of Microscint 20 (Canberra Packard, #6013621) on a TopCount NXT microplate scintillation counter (Canberra Packard).
Inhibition of ACCβ activity was determined at saturating substrate concentrations with two-fold serial dilutions of test compounds spanning a concentration range of at least two log units. IC50 values were calculated with the GraFit software (Erithacus Software Ltd.). Kinetic parameters (Km, Vmax and K0.5) were determined by varying one substrate (or allosteric effector) in a two-fold serial dilution over a concentration range of at least two log units while keeping all other substrates at constant saturating concentrations. Fitting to the Michaelis-Menten equation (for calculation of Km of substrates) and fitting to the Hill equation (for calculation of K0.5of the allosteric activator K-citrate) was done with the GraFit software. To determine the mode of action of Soraphens, determinations of Km for ATP and acetyl-CoA and of K0.5 for K-citrate were repeated in the absence and in the presence of the three different Soraphens at 0.5, 1 and 2 times their IC50 and the data were fitted to the equation for non-competitive inhibition with the GraFit software.

For test [2], the system named is differentiated L6 cells.
Description: as §1, §2, §3

Each structure is given as a SMILES string. Read-outs that look alike come from different tables or passages of the source.

As for `CCCCCCCCCCCCCCOc1ccc(C(=O)O)o1` [TOFA, 5-(Tetradecyloxy)-2-furoic acid, reference compound], the “Fold stimulation over palmitate oxidation rate in the absence of test compounds” value (“Fold stimulation … of test compounds” below) with HepG2 cells (HepG2, 25 μM) was 2.1 fold. In addition, the Palmitate oxidation rate in the test with HepG2 cells (HepG2, 25 μM) is reported as 8.1 +/− 0.7 pmol · h^−1 · well^−1; in the test with differentiated L6 cells [1] (L6, Table 3, 0.25 μM), 5.8 +/− 0.4 pmol · h^−1 · well^−1; in the test with differentiated L6 cells [1] (L6, Table 3, 2.5 μM), 8.0 +/− 0.7 pmol · h^−1 · well^−1; in the test on differentiated L6 cells [1] (L6, Table 3, 25 μM), 7.2 +/− 0.3 pmol · h^−1 · well^−1. Besides, the Fold stimulation in the test on differentiated L6 cells [1] (L6, Table 3, 0.25 μM) was determined as 1.1 fold; in the test with differentiated L6 cells [1] (L6, Table 3, 2.5 μM), 1.5 fold; with differentiated L6 cells [1] (L6, Table 3, 25 μM), 1.3 fold. Moreover, in the test on differentiated L6 cells [1] (differentiated L6 cells, up to 25 μM), the “Maximal stimulation of palmitate oxidation” value was 1.5 fold.
`CC(Oc1ccc(Oc2ncc(C(F)(F)F)cc2Cl)cc1)C(=O)O` (stereo not shown) [Haloxyfop, 2-[4-(3-chloro-5-trifluormethyl-2-pyridinyloxy)phenoxy] propionic acid]: in the test with HepG2 cells, the “Stimulation of palmitate / fatty acid oxidation (in words)” value was “did not stimulate”. For the same compound, in the test on HepG2 cells (HepG2, 25 μM), the “Fold stimulation … of test compounds” value was found to be 1.0 fold and the Palmitate oxidation rate is reported as 3.6 +/− 0.4 pmol · h^−1 · well^−1.
The like results for `CC(Oc1ccc(Oc2ccc(Cl)cc2Cl)cc1)C(=O)O` (stereo not shown) [Diclofop, 2-[p-(2,4-Dichlorophenoxy)phenoxy]propionic acid] were, in that order, “did not stimulate”, 0.8 fold and 3.1 +/− 1.3 pmol · h^−1 · well^−1.
The like results for `CCCC(=NOCC)C1=C(O)CC(C2CCCSC2)CC1=O` (stereo not shown) [Cycloxidim, 2-(1-Ethoxyimino-butyl)-3-hydroxy-5-(tetrahydro-thiopyran-3-yl)-cyclohex-2-enone] were, in that order, “did not stimulate”, 0.9 fold and 3.5 +/− 0.2 pmol · h^−1 · well^−1.
With `CO[C@@H]1[C@@H](O)[C@H](C)[C@H]2OC1(O)[C@H](C)C(=O)O[C@H](c1ccccc1)CCCC[C@H](O)[C@H](O)/C=C/[C@@H]2C` [Cpd (Ib), Soraphen A 4-α], at human ACCβ enzyme, the IC50 (usually the concentration that gives 50% inhibition) was 200 nM, the “Effect on K0.5 of K-citrate” value is reported as “did not change” and the “Effect on Vmax of the ACC enzyme reaction” value is listed as “dose-dependent decrease”. Further, in the test on HepG2 cells (HepG2, 10 μM), the “Fold stimulation … of test compounds” value was found to be 2.8 fold and the Palmitate oxidation rate is reported as 10.8 +/− 0.4 pmol · h^−1 · well^−1. In the test with differentiated L6 cells [2] (L6, Table 2, 0.02 μM), the Fold stimulation is 1.0 fold and the Palmitate oxidation rate is listed as 8.8 +/− 0.3 pmol · h^−1 · well^−1. For the same compound, in the test on differentiated L6 cells [2] (L6, Table 2, 0.2 μM), the Fold stimulation amounted to 1.1 fold and the Palmitate oxidation rate is listed as 10.0 +/− 1.4 pmol · h^−1 · well^−1. In the test with differentiated L6 cells [2] (L6, Table 2, 2 μM), the Fold stimulation is 1.5 fold and the Palmitate oxidation rate was 13.5 +/− 1.4 pmol · h^−1 · well^−1.
Take `CO[C@H]1CC(O)CC[C@@H](c2ccccc2)OC(=O)[C@@H](C)C2(O)O[C@H]([C@@H](C)[C@H](O)[C@H]2OC)[C@@H](C)/C=C/[C@H]1O` (stereo partly drawn) [Cpd (Ic), Soraphen B 2-α]: on human ACCβ enzyme, the half-maximal inhibitory concentration (IC50) was found to be 1750 nM, the “Effect on K0.5 of K-citrate” value is on record as “did not change” and the “Effect on Vmax of the ACC enzyme reaction” value is reported as “dose-dependent decrease”. Also, in the test with HepG2 cells (HepG2, 10 μM), the “Fold stimulation … of test compounds” value came to 1.6 fold and the Palmitate oxidation rate is reported as 6.1 +/− 0.4 pmol · h^−1 · well^−1. In addition, in the test on differentiated L6 cells [1] (L6, Table 2, 0.02 μM), the Fold stimulation was 0.9 fold and the Palmitate oxidation rate was 8.2 +/− 0.5 pmol · h^−1 · well^−1. In the test with differentiated L6 cells [1] (L6, Table 2, 0.2 μM), the Fold stimulation is 1.0 fold and the Palmitate oxidation rate is recorded as 8.8 +/− 0.5 pmol · h^−1 · well^−1. In the test on differentiated L6 cells [1] (L6, Table 2, 2 μM), the Fold stimulation is recorded as 1.1 fold and the Palmitate oxidation rate is 10.2 +/− 1.3 pmol · h^−1 · well^−1.

The values above are taken from patent publication US20030144345A1, “Treatment of metabolic diseases with soraphen derivatives” (priority 2001, published 2003).
